Structures can show the parent of a compound that is named as a salt.
What was measured:
Histamine H3 receptor [1] = target: T1, Histamine H3 receptor (Cavia porcellus, UniProt Q9JI35); assay: Histamine H3 radioligand binding assay, guinea pig cortex ([3H]-R-α-methylhistamine); details: guinea pig cortex membranes, competition with 1 nM [3H]-R-α-methylhistamine; for Ki: read-out: pKi (Guinea pig cortex) (converted)
Protocol: The compounds of the invention were also tested in a guinea pig cortex binding assay, as follows:
Histamine H3 Radioligand Binding Assay—Guinea Pig Cortex
Male Dunkin Hartley guinea pigs (200-300 g) were used. The whole brain was removed and immediately placed in ice-cold 20 mM Hepes-NaOH buffer (pH7.4 at 21±3° C.). The cortex was dissected, weighed and homogenised in ice-cold 20 mM Hepes-NaOH buffer (pH7.4 at 21±3° C.) (50 ml/guinea-pig cortex) using a polytron (Kinematica AG; PT-DA 3020/2TS, 3×3 s). The homogenate was centrifuged at 100×g for 5 min and the supernatants pooled and stored at 4° C. The pellets were rehomogenised in fresh ice-cold buffer (80 ml) and recentrifuged (100×g for 5 min). The supernatants were pooled and pellets rehomogenised and recentrifuged (100×g for 5 min). All supernatants were pooled and centrifuged at 39,800×g for 12 min at 4° C. The final pellet was resuspended in 20 mM Hepes-NaOH buffer (pH7.4 at 21±3° C.) to a tissue concentration of 7.5 mg.ml^−1, using a teflon-in-glass homogeniser.
Guinea pig cortex membranes (400 μl) were incubated for 165 min at 21±3° C. in a final volume of 500 μl with 20 mM Hepes-NaOH buffer containing [^3H]-R-α-methylhistamine (50 μl; 1 nM) and competing compound. Total and non-specific binding of [^3H]-R-α-methylhistamine were defined using 50 μl of buffer and 50 μl of 10 μM thioperamide, respectively. The assay was terminated by rapid filtration through Whatman GF/B filters, presoaked (2 hr) in 0.1% polyethyleneimine, using a Brandell Cell Harvester. The filters were washed (3×3 ml) with ice-cold 50 mM Tris-HCl (pH6.9 at 21±3° C.), transferred into scintillation vials, 5 ml liquid scintillation cocktail was added and after 4 hours the bound radioactivity was determined by counting (4 min) in a Beckman liquid scintillation counter.
Data are analysed using GraphPad prism and the general equation for a competition curve with variable Hill slope (nH). [formula] where • X is the log concentration of competing compound, • Y is the binding obtained at each concentration of X, • pIC50 is the concentration of the competitor required to compete for half of the specific binding.
The IC50 is converted to the K1 using the Cheng Prusoff equation, K1=IC50/(1+(L/KD)) where • IC50 is the concentration of competitor required to compete for half the specific binding, • L is the radioligand concentration used, • KD is the equilibrium dissociation constant for the radioligand determined by saturation experiments.

Histamine H3 receptor [2] = target: T1, Histamine H3 receptor; assay: Histamine H3 functional assay, guinea pig ileum (ileal longitudinal muscle, myenteric plexus); design: species or system tissue; details: antagonist affinity from rightward shift of R-(α)-methylhistamine E/[A] curves (Schild), typical variance ±0.15 log units; for Kb: read-out: pKb (Guinea pig ileum) (converted)
Protocol: • 1. J. Med. Chem 1994, 314. • 2. WO 97/29092 Histamine H3 Functional Assay—Guinea Pig Ileum
The biological activity of the compounds of the examples was measured using the ileal longitudinal muscle, myenteric plexus assay described by Paton and Aboo Zar (J. Physiol. 1968, 194, 13-33). Male Dunkin-Hartley guinea pigs (250-300 g) were employed. Briefly, a 50 cm portion of ileum proximal to the caecum was removed, after discarding the terminal 20 cm. Ileal segments (3 cm) were cleaned by passing Krebs-Henseleit buffer containing 3 μM mepyramine gently through the ileum using a Pasteur pipette (size: 13.8 cm length, 0.65 cm diameter). To avoid unnecessary damage to the tissue, Krebs-Henseleit buffer was passed through the ileal segment, while it was lying horizontally on a petri dish. Therefore, the ileum was not over-distended and the buffer flowed through with ease. Each segment was then passed over a Pasteur pipette and the longitudinal muscle layer and adhering myenteric plexus was teased away using moist cotton wool, by stroking tangentially away from the mesenteric attachment. The tissues were suspended in 20 ml organ baths containing Krebs-Henseleit buffer at 37±1° C. and gassed with […]. The tissues were ligated to two parallel stainless steel wires, situated between two platinum electrodes (0.76 cm length, 0.06 cm diameter). All measurements were recorded isometrically (Grass FTO3 transducer). Following an initial loading tension of 1 g, the tissues were stimulated with electrical pulses at a frequency of 0.1 Hz and a pulse duration of 0.5 msec, as described by Kosterlitz & Watt (Br. J. Pharmacol. 1968, 266276). Initially, the tissues were stimulated at supramaximal (1.3 fold times maximal) voltage for a period of 30 min and then the tissues were washed and re-stimulated. A “sighter dose” of the selective histamine H3-receptor agonist, R-(α)-methylhistamine (0.3 μM) (Arrang et al. Nature, 1987, 117-123), was administered. Upon generation of response, the “sighter dose” was removed from the tissues by “washout” (6 washes over 60 min) and during this period the electrical stimulation was switched off. The tissues were then re-stimulated and allowed to stabilise prior to the addition of drug treatments, which were allocated on a randomised block basis to the organ baths. Following the incubation period, a single cumulative E/[A] curve was obtained. The experimental E/[A] curve data was expressed as the percentage inhibition of the peak height of electrically-stimulated contraction. Antagonist affinity values were calculated from the degree of rightward shift of the R-(α)-methylhistamine E/[A] curves using Schild's methods (Arunlakshana & Schild Br. J. Pharmacol. 1959, 48-58). Typical variance in this assay is ±0.15 log units.

T1 sequence (Q9JI35 whole entry): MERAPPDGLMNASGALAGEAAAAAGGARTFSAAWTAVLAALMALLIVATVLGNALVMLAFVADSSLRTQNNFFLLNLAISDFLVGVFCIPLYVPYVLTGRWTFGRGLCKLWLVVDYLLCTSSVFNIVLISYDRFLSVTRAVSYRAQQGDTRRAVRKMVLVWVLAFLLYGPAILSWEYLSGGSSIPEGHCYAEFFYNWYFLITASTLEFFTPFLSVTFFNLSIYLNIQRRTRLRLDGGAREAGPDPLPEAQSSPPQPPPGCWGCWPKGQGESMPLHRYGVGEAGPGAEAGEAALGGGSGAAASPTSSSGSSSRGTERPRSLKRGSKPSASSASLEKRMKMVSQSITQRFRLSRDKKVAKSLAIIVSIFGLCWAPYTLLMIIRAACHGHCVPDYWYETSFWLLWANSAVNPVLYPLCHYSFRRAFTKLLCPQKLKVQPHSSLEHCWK

| Ki (Histamine H3 receptor [1]) [nM] | Kb (Histamine H3 receptor [2]) [nM] | SMILES | pKi (Guinea pig cortex) (Histamine H3 receptor [1]; bis-hydrochloride) | pKb (Guinea pig ileum) (Histamine H3 receptor [2]) | pKi (Guinea pig cortex) (Histamine H3 receptor [1]) |
| --- | --- | --- | --- | --- | --- |
| 3.16 | 25.1 | Cc1ccccc1CNC(=N)NCCCCCN1CCCC1 [Example 48, N-(2-Methylbenzyl)-N′-(5-pyrrolidin-1-yl-pentyl)-guanidine bis-hydrochloride] | – | – | – |
| 6.31 | 31.6 | C[C@H](NC(=N)NCCCCCN1CCCC1)c1ccccc1 [Example 49, N-(1(S)-Phenyl-ethyl)-N′-(5-pyrrolidin-1-yl-pentyl)-guanidine bis-hydrochloride] | – | – | – |
| 15.8 | 316 | CN(Cc1ccccc1)C(=N)NCCCCCN1CCCC1 [Example 50, N-Benzyl-N-methyl-N′-(5-pyrrolidin-1-yl-pentyl)-guanidine bis-hydrochloride] | – | – | – |
| 7.94 | 100 | N=C(NCCCCCN1CCCC1)N1CCc2ccccc2C1 [Example 51, N-(5-Pyrrolidin-1-yl-pentyl)-3,4-dihydro-1H-isoquinoline-2-carboxamidine bis-hydrochloride] | – | – | – |
| 316 | 316 | N=C(NCc1ccc(Cl)cc1)N(CCCCN1CCCC1)Cc1ccc(Cl)cc1 [Example 52, N,N′-Bis-(4-Chlorobenzyl)-N-(4-pyrrolidin-1-yl-butyl)-guanidine bis-hydrochloride] | – | – | – |
| 7.94 | 79.4 | N=C(NCCCCCN1CCCC1)NCc1ccc2ccccc2c1 [Example 53, N-(Naphthalen-2-yl-methyl)-N′-(5-pyrrolidin-1-yl-pentyl)guanidine bis-hydrochloride] | – | – | – |
| 20 | 63.1 | N=C(NCCCCN1CCCC1)NCc1ccc(C2CCCCC2)cc1 [Example 56, N-(4-Cyclohexylbenzyl)-N′-(4-pyrrolidin-1-yl-butyl)-guanidine bis-hydrochloride] | – | – | – |
| 3.16 | 200 | N=C(NCCCCCN1CCCC1)NCC1CCCCO1 (centres unmarked) [Example 58, N-(5-Pyrrolidin-1-yl-pentyl)-N′-(tetrahydro-pyran-2-yl-methyl)-guanidine bis-hydrochloride] | – | – | – |

More lines, now with the values behind:

| SMILES | Ki (Histamine H3 receptor [1]) [nM] | Kb (Histamine H3 receptor [2]) [nM] | pKi (Guinea pig cortex) (Histamine H3 receptor [1]; bis-hydrochloride) | pKb (Guinea pig ileum) (Histamine H3 receptor [2]) | pKi (Guinea pig cortex) (Histamine H3 receptor [1]) |
| --- | --- | --- | --- | --- | --- |
| Cl.Cl.N=C(NCCCCCCN1CCCC1)NCC12CC3CC(CC(C3)C1)C2 [Example 31, N-Adamantan-1-yl-methyl-N′-(6-pyrrolidin-1-yl-hexyl)-guanidine bis-hydrochloride] | – | – | 8.4 | 8.0 | – |
| Cl.Cl.N=C(NCCCCCCCN1CCCC1)NCC12CC3CC(CC(C3)C1)C2 [Example 32, N-Adamantan-1-yl-methyl-N′-(7-pyrrolidin-1-yl-heptyl)-guanidine bis-hydrochloride] | – | – | – | 8.0 | 8.5 |
| N=C(NCCCN1CCCC1)NCCC12CC3CC(CC(C3)C1)C2 [Example 33, N-(2-Adamantan-1-yl-ethyl)-N′-(3-pyrrolidin-1-yl-propyl)-guanidine bis-hydrochloride] | 79.4 | 200 | – | – | – |
| N=C(NCCCN1CCCC1)NCCCC12CC3CC(CC(C3)C1)C2 [Example 34, N-(3-Adamantan-1-yl-propyl)-N′-(3-pyrrolidin-1-yl-propyl)-guanidine bis-hydrochloride] | 316 | 316 | – | – | – |
| N=C(NCCCCN1CCCC1)NCCC12CC3CC(CC(C3)C1)C2 [Example 35, N-(2-Adamantan-1-yl-ethyl)-N′-(4-pyrrolidin-1-yl-butyl)-guanidine bis-hydrochloride] | 7.94 | 20 | – | – | – |
| N=C(NCCCCN1CCCC1)NCCCC12CC3CC(CC(C3)C1)C2 [Example 36, N-(3-Adamantan-1-yl-propyl)-N′-(4-pyrrolidin-1-yl-butyl)-guanidine bis-hydrochloride] | 50.1 | 63.1 | – | – | – |
| N=C(NCCCCCN1CCCC1)NCCC12CC3CC(CC(C3)C1)C2 [Example 37, N-(2-Adamantan-1-yl-ethyl)-N′-(5-pyrrolidin-1-yl-pentyl)-guanidine bis-hydrochloride] | 12.6 | 25.1 | – | – | – |
| N=C(NCCCCCN1CCCC1)NCCCC12CC3CC(CC(C3)C1)C2 [Example 38, N-(3-Adamantan-1-yl-propyl)-N′-(5-pyrrolidin-1-yl-pentyl)-guanidine bis-hydrochloride] | 31.6 | 63.1 | – | – | – |
| Cl.Cl.N=C(NCCCCN1CCCC1)NCC1CCCCC1 [Example 40, N-Cyclohexyl-methyl-N′-(4-pyrrolidin-1-yl-butyl)-guanidine bis-hydrochloride] | – | – | – | 7.4 | 8.4 |
| Cl.Cl.N=C(NCCCCCN1CCCC1)NCC1CCCCC1 [Example 41, N-Cyclohexyl-methyl-N′-(5-pyrrolidin-1-yl-pentyl)-guanidine bis-hydrochloride] | – | – | – | 7.5 | 8.9 |
| N=C(NCCCN1CCCC1)NCCC1CCCCC1 [Example 42, N-(2-Cyclohexyl-ethyl)-N′-(3-pyrrolidin-1-yl-propyl)-guanidine bis-hydrochloride] | 25.1 | 398 | – | – | – |
| N=C(NCCCC1CCCCC1)NCCCN1CCCC1 [Example 43, N-(3-Cyclohexyl-propyl)-N′-(3-pyrrolidin-1-yl-propyl)-guanidine bis-hydrochloride] | 100 | 200 | – | – | – |
| C[C@@H](NC(=N)NCCCCN1CCCC1)C1CCCCC1 [Example 44, N-(1(R)-Cyclohexyl-ethyl)-N′-(4-pyrrolidin-1-yl-butyl)-guanidine bis-hydrochloride] | 1.58 | 25.1 | – | – | – |
| C[C@H](NC(=N)NCCCCN1CCCC1)C1CCCCC1 [Example 45, N-(1(S)-Cyclohexyl-ethyl)-N′(4-pyrrolidin-1-yl-butyl)-guanidine bis-hydrochloride] | 3.98 | 31.6 | – | – | – |
| Cl.Cl.N=C(NCCCCCN1CCCC1)NCC1CCCCCC1 [Example 46, N-Cycloheptyl-methyl-N′(5-pyrrolidin-1-yl-pentyl)-guanidine bis-hydrochloride] | – | – | – | 7.7 | 8.5 |
| N=C(NCCCCCN1CCCC1)NCc1ccccc1 [Example 47, N-Benzyl-N′-(5-pyrrolidin-1-yl-pentyl)-guanidine bis-hydrochloride] | 3.98 | 50.1 | – | – | – |
| Cl.Cl.N=C(NCCCCN1CCCC1)NCc1ccc(-c2ccccc2)cc1 [Example 54, N-Biphenyl-4-yl-methyl-N′-(4-pyrrolidin-1-yl-butyl)-guanidine bis-hydrochloride] | – | – | – | 7.1 | 7.3 |

— US6878736B1, “Histamine H3 receptor ligands” (James Black Foundation Limited, priority 1998, dated 2005)
